Measured values published in patent US5869500A, “Pyridone compounds useful in treating Alzheimer's disease” (Hoffmann-La Roche Inc., priority 1996, dated 1999).

Tested on: Aβ production in HEK cells over-expressing mutated β-APP (SFAD)
Assay: Aβ production inhibition, sandwich-ELISA in HEK cells, over-expressed mutated β-APP (SE-SFAD)
Format: cell-based, human
Conditions: for IC50: based on the respective plateau of maximum inhibition; for Emax: maximum inhibition plateau, read-out: SE-SFAD max. inhibition %
Procedure: The effect of test substances on the inhibition of Aβ-amyloid production can be measured in the supernatant of cell cultures of β-APP expressed cells using ELISA tests or other quantitative determination methods for β-APP degradation products. Typically, 8×10^5 cells (e.g. HEK cells, which express recombinant human β-APP variants) are plated out in each well of a culture dish having 24 wells in growth media such as e.g. OPTIMEM (Gibco) and the test compound is then added. After an incubation period of 24 to 48 hours at 37° C. in a 10% CO2 atmosphere the supernatant is removed from the cell cultures and the β-APP degradation products (e.g. Aβ or β-[…]) are determined with the aid of ELISA (or sandwich ELISA) analysis or by means of quantitative immunoprecipitation (after metabolic radiolabelling of the cell proteins). Typically, 300 μl of the cell supernatant are tested according to the state of the art for ELISA tests in culture dishes having 96 wells. In the case of sandwich ELISA for Aβ, the binding antibody can be directed against the first 16 amino acids of Aβ-peptide (e.g. 6E10 Senetek, Maryland Heights, Mo.) and the detection antibody can be directed against amino acids 17-40 or 17-42 of Aβ and carries a detection system such as e.g. peroxidase. A simple ELISA test with an antibody, e.g. 22C11 (Boehringer Mannheim), can be used as the test for […]; the second antibody can be an anti-(mouse) Ig having a detection system, such as e.g. peroxidase. The peroxidase reaction can be carried out e.g. using a TMB substrate (BioRAD) and the measurements can be carried out at 650 nm using an ELISA reading apparatus. […] SE-SFAD signifies the Aβ production inhibition measured using sandwich-ELISA in HEK cells, SFAD signifies over-expressed mutated β-APP, and SE-WT signifies the Aβ production inhibition measured using sandwich-ELISA in HEK cells which over-express Wild type β-APP. The IC50 values are based on the respective plateau of maximum inhibition.

[1] = Homo sapiens, HEK293, HEK cells

SMILES	IC50 [1] [nM]	Emax [1] [%]	IC50 (HEK cells) [nM]
O=C(NC1CCCCC1O)c1cc(-c2ccccc2)c(=O)n2ccc3ccsc3c12 (centres unmarked) [Compound 25]	10000	100	–
COCCN(C(=O)c1cc(-c2ccc(OCc3ccccc3)cc2)c(=O)n2ccc3cc(C)sc3c12)c1ccccc1 [Compound 74]	300	100	–
COC(=O)c1cc(-c2ccccc2OC)c(=O)n2ccc3ccsc3c12 [Compound 114, Methyl 8-(2-methoxy-phenyl)-7-oxo-7H-thieno[2,3-a]quinolizine-10-carboxylate]	–	70	6300
C#CCN(C(=O)c1cc(-c2ccccc2OC)c(=O)n2ccc3ccsc3c12)c1ccccc1 [Compound 143, 8-(2-Methoxy-phenyl)-7-oxo-7H-thieno[2,3-a]quinolizine-10-carboxylic acid phenyl-prop-2-ynyl-amide]	5500	40 to 100	–
COCCN(C(=O)c1cc(-c2ccc(OCc3ccccc3)cc2)c(=O)n2ccc3cc(C(=O)N(C)C)sc3c12)c1ccccc1 [Compound 76, 8-(4-Benzyloxy-phenyl)-7-oxo-7H-thieno[2,3-a]quinolizine-2,10-dicarboxylicacid 2-dimethylamide 10-[(2-methoxy-ethyl)-phenyl-amide]]	2800	40	–
COC(=O)c1cc(-c2ccccc2)c(=O)n2ccc3ccsc3c12 [Compound 15, Methyl 7-oxo-8-phenyl-7H-thieno[2,3-a]quinolizine-10-carboxylate]	3000	60	–
COCCN(C(=O)c1cc(-c2ccc(OCc3ccccc3)cc2)c(=O)n2ccc3ccsc3c12)C(C)C [Compound 69, 8-(4-Benzyloxy-phenyl)-7-oxo-7H-thieno[2,3-a]quinolizine-10-carboxylic acid isopropyl-(2-methoxy-ethyl)-amide]	800	45	–
COCCNC(=O)c1cc(-c2ccc(C(C)(C)C)cc2)c(=O)n2ccc3ccsc3c12 [Compound 110, 8-(4-tert-Butyl-phenyl)-7-oxo-7H-thieno[2,3-a]quinolizine-10-carboxylicacid (2-methoxy-ethyl)-amide]	6200	95	–
Cn1ccnc1COC(=O)c1cc(-c2ccccc2)c(=O)n2ccc3ccsc3c12 [Compound 27, 1-Methyl-1H-imidazol-2-yl-methyl 7-oxo-8-phenyl-7H-thieno[2,3-a]-quinolizine-10-carboxylate methanesulphonate]	50000	100	–
COC(=O)c1cc(-c2ccc(Oc3ccccc3)cc2)c(=O)n2ccc3ccsc3c12 [Compound 96, Methyl 7-oxo-8-(4-phenoxy-phenyl)-7H-thieno[2,3-a]quinolizine-10-carboxylate]	1000	40	–
COCCN(CC1CC1)C(=O)c1cc(-c2ccc(OC)cc2)c(=O)n2ccc3ccsc3c12 [Compound 146, 8-(4-Methoxy-phenyl)-7-oxo-7H-thieno[2,3-a]quinolizine-10-carboxylic acid cyclopropylmethyl-(2-methoxy-ethyl)-amide]	1500	100	–
CCN(CCOC)C(=O)c1cc(-c2ccc(Oc3ccccc3)cc2)c(=O)n2ccc3ccsc3c12 [Compound 99, 7-Oxo-8-(4-phenoxy-phenyl)-7H-thieno[2,3-a]quinolizine-10-carboxylic acid ethyl-(2-methoxy-ethyl)-amide]	2500	100	–
COCCN(CCOC)C(=O)c1cc(-c2ccc(C)cc2)c(=O)n2ccc3ccsc3c12 [Compound 150, 7--Oxo-8-p-tolyl-7H-thieno[2,3-a]quinolizine-10-carboxylic acid bis-(2-methoxy-ethyl)-amide]	2700	100	–
CCN(CCOC)C(=O)c1cc(-c2ccc(OC)cc2)c(=O)n2ccc3ccsc3c12 [Compound 144, 8-(4-Methoxy-phenyl)-7-oxo-7H-thieno[2,3-a]quinolizine-10-carboxylic acid ethyl-(2-methoxy-ethyl)-amide]	2000	40	–
COCCN(C(=O)c1cc(-c2ccc(OCc3ccccc3)cc2)c(=O)n2ccc3ccsc3c12)c1ccccc1 [Compound 72, 8-(4-Benzyloxy-phenyl)-7-oxo-7H-thieno[2,3-a]quinolizine-10-carboxylic acid (2-methoxy-ethyl)-phenyl-amide]	500	100	–
COCCN(Cc1cccs1)C(=O)c1cc(-c2cccc(OC)c2)c(=O)n2ccc3ccsc3c12 [Compound 125, 8-(3-Methoxy-phenyl)-7-oxo-7H-thieno[2,3-a]quinolizine-10-carboxylic acid (2-methoxy-ethyl)-thiophen-2-yl-methyl-amide]	2000	10	–
O=C(c1cc(-c2ccc(OCc3ccccc3)cc2)c(=O)n2ccc3ccsc3c12)N(CCO)c1ccccc1 [Compound 73, 8-(4-Benzyloxy-phenyl)-7-oxo-7H-thieno[2,3-a]quinolizine-10-carboxylic acid (2-hydroxy-ethyl)-phenyl-amide]	1300	55	–
O=C(O[C@@H]1CN(C(=O)OCc2ccccc2)C[C@@H]1O)c1cc(-c2ccccc2)c(=O)n2ccc3ccsc3c12 (racemic) [Compound 57, (3RS,4SR)-1-Benzyloxy-carbonyl-4-hydroxy-pyrrolidin-3-yl 7-oxo-8-phenyl-7H-thieno[2,3-a]quinolizine-10-carboxylate]	500	35	–
COC(=O)c1cc(-c2cccc(C(F)(F)F)c2)c(=O)n2ccccc12 [Compound 17, Methyl 4-oxo-3-(3-trifluoromethyl-phenyl)-4H-quinolizine-1-carboxylate]	500	30	–
COCCN(C(=O)c1cc(-c2ccccc2OC)c(=O)n2ccc3ccsc3c12)c1ccccc1 [Compound 121, 8-(2-Methoxy-phenyl)-7-oxo-7H-thieno[2,3-a]quinolizine-10-carboxylic acid (2-methoxy-ethyl)-phenyl-amide]	1800	100	–
CCCN(CCOC)C(=O)c1cc(-c2ccc(OCc3ccccc3)cc2)c(=O)n2ccc3c(ncn3C)c12 [Compound 105, 8-(4-Benzyloxy-phenyl)-3-methyl-7-oxo-3,7-dihydro-imidazo[4,5-a]-quinolizine-10-carboxylic acid (2-methoxy-ethyl)-propyl-amide]	5000	50	–
COCCN(C(=O)c1cc(-c2ccc(OCc3ccccc3)cc2)c(=O)n2ccc3c(ncn3C)c12)c1ccccc1 [Compound 102, 8-(4-Benzyloxy-phenyl)-3-methyl-7-oxo-3,7-dihydro-imidazo [4,5-a]quinolizine-10-carboxylic acid (2-methoxy-ethyl)-phenyl-amide]	3600	80	–
COCCN(CC1CC1)C(=O)c1cc(-c2ccc(C(C)(C)C)cc2)c(=O)n2ccc3ccsc3c12 [Compound 112, 8-(4-tert-Butyl-phenyl)-7-oxo-7H-thieno[2,3-a]quinolizine-10-carboxylicacid cyclopropylmethyl-(2-methoxy-ethyl)-amide]	1500	100	–
COc1cccc(-c2cc(C(=O)Nc3ccncc3)c3c4sccc4ccn3c2=O)c1 [Compound 124, 8-(3-Methoxy-phenyl)-7-oxo-7H-thieno[2,3-a]quinolizine-10-carboxylic acid pyridin-4yl-amide]	800	35	–
COCCN(CCOC)C(=O)c1cc(-c2ccc(Oc3ccccc3)cc2)c(=O)n2ccc3ccsc3c12 [Compound 97, 7-Oxo-8-(4-phenoxy-phenyl)-7H-thieno[2,3-a]quinolizine-10-carboxylic acid bis-(2-methoxy-ethyl)-amide]	2200	100	–
CCN(CCOC)C(=O)c1cc(-c2ccccc2OC)c(=O)n2ccc3ccsc3c12 [Compound 122, 8-(2-Methoxy-phenyl)-7-oxo-7H-thieno[2,3-a]quinolizine-10-carboxylic acidethyl-(2-methoxy-ethyl)-amide]	8000	25	–
COCCN(C(=O)c1cc(-c2ccc(OCc3ccccc3)cc2)c(=O)n2ccc3cc(C(=O)O)sc3c12)c1ccccc1 [Compound 80, 8-(4-Benzyloxy-phenyl)-10-[(2-methoxy-ethyl)-phenyl-carbamoyl]-7-oxo-7H-thieno[2,3-a]quinolizine-2-carboxylic acid]	1000 to 3000	30 to 70	–
COCCN(CC1CC1)C(=O)c1cc(-c2ccccc2OC)c(=O)n2ccc3ccsc3c12 [Compound 119, 8-(2-Methoxy-phenyl)-7-oxo-7H-thieno[2,3-a]quinolizine-10-carboxylic acid cyclopropylmethyl-(2-methoxy-ethyl)-amide]	1600	60 to 80	–
